Test results published in ChEMBL document CHEMBL1123249, “Nitrobenzyl derivatives as bioreductive alkylating agents: evidence for the reductive formation of a reactive intermediate” (1986).

Tests used:
Assay type in all cases: functional, Mus musculus
EMT6 [1] = test: Compound was evaluated for its effect on survival of aerobic EMT6 tumor cells when exposed to concentration at 10E-5 M
EMT6 [2] = test: Compound was evaluated for its effect on survival of hypoxic EMT6 tumor cells when exposed to concentration at 10E-4 M
EMT6 [3] = test: Compound was evaluated for its effect on survival of hypoxic EMT6 tumor cells when exposed to concentration at 10e-7 M
EMT6 [4] = test: Compound was evaluated for its effect on survival of hypoxic EMT6 tumor cells when exposed to concentration at 10E-6 M
EMT6 [5] = test: Compound was evaluated for its effect on survival of aerobic EMT6 tumor cells when exposed to concentration at 10e-7 M
EMT6 [6] = test: Compound was evaluated for its effect on survival of hypoxic EMT6 tumor cells when exposed to concentration at 10e-5 M
EMT6 [7] = test: Compound was evaluated for its effect on survival of aerobic EMT6 tumor cells when exposed to concentration at 10E-4 M
EMT6 [8] = test: Compound was evaluated for its effect on survival of aerobic EMT6 tumor cells when exposed to concentration at 10e-6 M
EMT6 [9] = test: Compound was evaluated for its effect on survival of hypoxic EMT6 tumor cells when exposed to concentration at 10E-8 M
EMT6 [10] = test: Compound was evaluated for its effect on survival of aerobic EMT6 tumor cells when exposed to concentration at 10E-6 M
EMT6 [11] = test: Compound was evaluated for its effect on survival of aerobic EMT6 tumor cells when exposed to concentration at 10e-8 M

With Nc1nc2[nH]cnc2c(=S)[nH]1 [THIOGUANINE] as the compound, how does the Surviving factor (EMT6 [1]) read?
Its Surviving factor is 78%.

And the Surviving factor (EMT6 [2])?
The Surviving factor was 106%.

And the Surviving factor (EMT6 [3])?
Its Surviving factor is 89%.

What about the Surviving factor (EMT6 [4]) of the same compound?
The Surviving factor was 90%.

What about the Surviving factor (EMT6 [5]) of the same compound?
The Surviving factor was 95%.

What about the Surviving factor (EMT6 [6]) of the same compound?
Its Surviving factor is 107%.

What about the Surviving factor (EMT6 [7]) of the same compound?
The Surviving factor was 67%.

And the Surviving factor (EMT6 [8])?
Its Surviving factor is 70%.

Which results are given for Nc1nc(SCc2ccccc2[N+](=O)[O-])c2[nH]cnc2n1?
Surviving factor (EMT6 [2]): 85%; Surviving factor (EMT6 [9]): 94%; Surviving factor (EMT6 [10]): 95%; Surviving factor (EMT6 [4]): 82%; Surviving factor (EMT6 [7]): 89%; Surviving factor (EMT6 [11]): 91%

What does the source list for Nc1nc(SCc2cccc([N+](=O)[O-])c2)c2[nH]cnc2n1?
Surviving factor (EMT6 [1]): 103%; Surviving factor (EMT6 [2]): 88%; Surviving factor (EMT6 [4]): 103%; Surviving factor (EMT6 [6]): 103%; Surviving factor (EMT6 [7]): 91%; Surviving factor (EMT6 [8]): 95%

How did the Surviving factor (EMT6 [2]) turn out when Nc1nc(SCc2ccc([N+](=O)[O-])cc2)c2nc[nH]c2n1 was run?
The Surviving factor was 156%.

What about the Surviving factor (EMT6 [9]) of the same compound?
Its Surviving factor is 102%.

What about the Surviving factor (EMT6 [10]) of the same compound?
Its Surviving factor is 106%.

And the Surviving factor (EMT6 [4])?
Its Surviving factor is 137%.

And the Surviving factor (EMT6 [7])?
Its Surviving factor is 78%.

What about the Surviving factor (EMT6 [11]) of the same compound?
Its Surviving factor is 79%.
